Experimental data as given in the supplement of paper PMC10883282.
± gives the standard deviation of the averaged measurements.

How the values were obtained:
Experiment in all cases: relative viability vs DMSO control (72 h) (fraction); higher = more viable cells
VA-ES-BJ = tested on: VA-ES-BJ
How it was run: (§1)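 Sarcoma cell lines were grown in 384-well plates seeded toward 80–90% confluence and exposed 24 h later to serially diluted compound. After 72 h at 37 °C and 5% CO2, with 0.1% DMSO vehicle and a 5 µM positive control on the plates, ATPLite was read. Relative viability, given as percent growth averaged over up to triplicate wells, was rescaled so that 1 is full and 0 is none.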

RD = tested on: RD
How it was run: as §1

MES-SA = tested on: MES-SA
How it was run: as §1

SK-LMS-1 = tested on: SK-LMS-1
How it was run: as §1

HS729 = tested on: HS729
How it was run: as §1

CO[C@@H]1[C@H](N(C)C(=O)c2ccccc2)C[C@H]2O[C@]1(C)n1c3ccccc3c3c4c(c5c6ccccc6n2c5c31)C(=O)NC4 [Midostaurin]
relative viability
Settings | HS729 | MES-SA | RD | SK-LMS-1 | VA-ES-BJ
0.00017 µM | 0.927 ± 0.054 | 0.87 ± 0.049 | 1.06 ± 0.12 | 0.981 ± 0.015 | 0.978 ± 0.051
0.00051 µM | 0.913 ± 0.025 | 0.8799 ± 0.0073 | 1.06 ± 0.1 | 0.972 ± 0.013 | 0.943 ± 0.042
0.00152 µM | 0.914 ± 0.048 | 0.889 ± 0.046 | 1.07 ± 0.052 | 0.987 ± 0.092 | 0.974 ± 0.048
0.00457 µM | 0.921 ± 0.055 | 0.885 ± 0.04 | 1.09 ± 0.032 | 1.02 ± 0.067 | 0.978 ± 0.0096
0.01372 µM | 0.874 ± 0.062 | 0.891 ± 0.055 | 1.09 ± 0.03 | 1.02 ± 0.042 | 0.958 ± 0.018
0.04115 µM | 0.828 ± 0.04 | 0.866 ± 0.021 | 1.05 ± 0.027 | 0.946 ± 0.07 | 0.945 ± 0.025
0.1235 µM | 0.791 ± 0.046 | 0.818 ± 0.018 | 0.989 ± 0.011 | 0.793 ± 0.042 | 0.917 ± 0.023
0.3704 µM | 0.684 ± 0.042 | 0.408 ± 0.018 | 0.731 ± 0.022 | 0.564 ± 0.031 | 0.668 ± 0.038
1.111 µM | 0.368 ± 0.013 | 0.251 ± 0.013 | 0.46 ± 0.012 | 0.392 ± 0.011 | 0.372 ± 0.019
3.333 µM | 0.269 ± 0.0054 | 0.139 ± 0.0081 | 0.415 ± 0.01 | 0.36 ± 0.013 | 0.269 ± 0.014
10 µM | 0.273 ± 0.0051 | 0.0904 ± 0.0051 | 0.42 ± 0.011 | 0.364 ± 0.011 | 0.181 ± 0.015

CN1CCN(CCOc2cc(OC3CCOCC3)c3c(Nc4c(Cl)ccc5c4OCO5)ncnc3c2)CC1 [Saracatinib]
relative viability
Settings | HS729 | MES-SA | RD | SK-LMS-1 | VA-ES-BJ
0.00017 µM | 1 ± 0.034 | 0.934 ± 0.021 | 1.05 ± 0.019 | 1.03 ± 0.018 | 1.05 ± 0.021
0.00051 µM | 0.991 ± 0.051 | 0.933 ± 0.029 | 1.08 ± 0.027 | 1.06 ± 0.012 | 1.07 ± 0.067
0.00152 µM | 0.97 ± 0.051 | 0.936 ± 0.029 | 1.096 ± 0.01 | 1.05 ± 0.025 | 1.07 ± 0.041
0.00457 µM | 0.983 ± 0.1 | 0.94 ± 0.023 | 1.08 ± 0.022 | 1.04 ± 0.042 | 1.11 ± 0.051
0.01372 µM | 0.885 ± 0.059 | 0.959 ± 0.045 | 1.07 ± 0.036 | 1.02 ± 0.017 | 1.11 ± 0.035
0.04115 µM | 0.867 ± 0.067 | 0.923 ± 0.035 | 1.01 ± 0.041 | 1.05 ± 0.011 | 1.14 ± 0.024
0.1235 µM | 0.869 ± 0.073 | 0.943 ± 0.026 | 0.948 ± 0.031 | 0.973 ± 0.0091 | 1.14 ± 0.045
0.3704 µM | 0.792 ± 0.032 | 0.925 ± 0.053 | 0.836 ± 0.023 | 0.933 ± 0.018 | 1.12 ± 0.027
1.111 µM | 0.691 ± 0.029 | 0.837 ± 0.036 | 0.786 ± 0.0099 | 0.864 ± 0.029 | 0.941 ± 0.038
3.333 µM | 0.62 ± 0.028 | 0.692 ± 0.031 | 0.692 ± 0.028 | 0.71 ± 0.026 | 0.805 ± 0.043
10 µM | 0.627 ± 0.026 | 0.622 ± 0.014 | 0.642 ± 0.076 | 0.491 ± 0.015 | 0.681 ± 0.042

C[C@@H]1COC(Nc2ccc3ncnc(Nc4ccc(OCc5nccs5)c(Cl)c4)c3c2)=N1 [Varlitinib]
relative viability
Settings | HS729 | MES-SA | RD | SK-LMS-1 | VA-ES-BJ
0.00017 µM | 1.08 ± 0.071 | 0.965 ± 0.024 | 0.983 ± 0.047 | 1.01 ± 0.016 | 1.06 ± 0.014
0.00051 µM | 1.05 ± 0.045 | 0.965 ± 0.037 | 0.984 ± 0.032 | 1.033 ± 0.0096 | 1.06 ± 0.014
0.00152 µM | 1.08 ± 0.073 | 0.934 ± 0.021 | 0.997 ± 0.048 | 1.06 ± 0.049 | 1.05 ± 0.033
0.00457 µM | 1.06 ± 0.069 | 0.97 ± 0.013 | 1.02 ± 0.022 | 1 ± 0.039 | 1.04 ± 0.015
0.01372 µM | 1.03 ± 0.051 | 0.946 ± 0.045 | 0.998 ± 0.05 | 1.02 ± 0.02 | 1.08 ± 0.031
0.04115 µM | 1.05 ± 0.09 | 0.9545 ± 0.009 | 1.02 ± 0.07 | 1.04 ± 0.024 | 1.07 ± 0.066
0.1235 µM | 0.993 ± 0.068 | 0.945 ± 0.023 | 1.05 ± 0.055 | 1.04 ± 0.043 | 1.12 ± 0.045
0.3704 µM | 0.994 ± 0.056 | 0.888 ± 0.041 | 1 ± 0.075 | 1.04 ± 0.04 | 1.09 ± 0.039
1.111 µM | 0.9668 ± 0.0025 | 0.888 ± 0.03 | 1.04 ± 0.063 | 1.04 ± 0.022 | 1.05 ± 0.036
3.333 µM | 0.931 ± 0.06 | 0.807 ± 0.05 | 1.05 ± 0.021 | 0.976 ± 0.031 | 1.06 ± 0.036
10 µM | 0.76 ± 0.028 | 0.45 ± 0.035 | 1.05 ± 0.059 | 0.872 ± 0.038 | 0.96 ± 0.029

NC(=O)c1cnc2[nH]ccc2c1N[C@@H]1[C@@H]2CC3C[C@H]1C[C@@](O)(C3)C2 [Peficitinib]
relative viability
Settings | HS729 | MES-SA | RD | SK-LMS-1 | VA-ES-BJ
0.00017 µM | 1.04 ± 0.04 | 0.913 ± 0.024 | 1.03 ± 0.026 | 1.09 ± 0.013 | 1.06 ± 0.033
0.00051 µM | 1.02 ± 0.059 | 0.9465 ± 0.0071 | 1.04 ± 0.02 | 1.09 ± 0.043 | 1.03 ± 0.027
0.00152 µM | 1.03 ± 0.053 | 0.9008 ± 0.0041 | 1.04 ± 0.068 | 1.05 ± 0.012 | 1.01 ± 0.018
0.00457 µM | 1.04 ± 0.05 | 0.918 ± 0.016 | 1.04 ± 0.03 | 1.076 ± 0.0086 | 1.01 ± 0.032
0.01372 µM | 0.984 ± 0.047 | 0.9 ± 0.011 | 1.03 ± 0.073 | 1.1 ± 0.082 | 1.04 ± 0.027
0.04115 µM | 1 ± 0.049 | 0.94 ± 0.018 | 1.05 ± 0.083 | 1.07 ± 0.025 | 1.06 ± 0.028
0.1235 µM | 0.985 ± 0.057 | 0.945 ± 0.029 | 1.07 ± 0.081 | 1.08 ± 0.018 | 1.04 ± 0.049
0.3704 µM | 1.02 ± 0.07 | 0.971 ± 0.018 | 1.1 ± 0.059 | 1.08 ± 0.043 | 1.05 ± 0.032
1.111 µM | 0.977 ± 0.073 | 0.981 ± 0.029 | 1.117 ± 0.0058 | 1.13 ± 0.013 | 1.08 ± 0.02
3.333 µM | 0.9905 ± 0.0092 | 0.769 ± 0.0099 | 1.099 ± 0.008 | 1.11 ± 0.037 | 1.042 ± 0.0079
10 µM | 0.758 ± 0.018 | 0.388 ± 0.021 | 1.01 ± 0.018 | 0.965 ± 0.025 | 0.887 ± 0.021

CCCCCCCCCCCCCCCCCCOP(=O)([O-])OC1CC[N+](C)(C)CC1 [Perifosine]
relative viability
Settings | HS729 | MES-SA | RD | SK-LMS-1 | VA-ES-BJ
0.00017 µM | 1.06 ± 0.04 | 0.987 ± 0.012 | 1.05 ± 0.044 | 1.01 ± 0.024 | 1.08 ± 0.025
0.00051 µM | 0.9606 ± 0.0037 | 0.982 ± 0.021 | 1.07 ± 0.064 | 1.05 ± 0.018 | 1.09 ± 0.016
0.00152 µM | 1.01 ± 0.037 | 0.998 ± 0.015 | 1.09 ± 0.089 | 1.02 ± 0.051 | 1.05 ± 0.033
0.00457 µM | 1.02 ± 0.037 | 0.974 ± 0.022 | 1.11 ± 0.064 | 1.06 ± 0.026 | 1.1 ± 0.033
0.01372 µM | 0.924 ± 0.043 | 0.96 ± 0.016 | 1.07 ± 0.058 | 1.01 ± 0.037 | 1.07 ± 0.026
0.04115 µM | 0.931 ± 0.05 | 0.922 ± 0.012 | 1.07 ± 0.07 | 0.994 ± 0.046 | 1.091 ± 0.0089
0.1235 µM | 0.987 ± 0.026 | 0.953 ± 0.021 | 1.1 ± 0.044 | 1.02 ± 0.035 | 1.06 ± 0.038
0.3704 µM | 0.909 ± 0.051 | 0.936 ± 0.03 | 1.07 ± 0.044 | 1.01 ± 0.055 | 1.05 ± 0.038
1.111 µM | 0.902 ± 0.014 | 0.855 ± 0.043 | 1.08 ± 0.052 | 0.848 ± 0.15 | 1.05 ± 0.046
3.333 µM | 0.904 ± 0.042 | 0.918 ± 0.031 | 1.09 ± 0.039 | 0.836 ± 0.096 | 1.02 ± 0.053
10 µM | 0.913 ± 0.026 | 0.781 ± 0.032 | 0.997 ± 0.032 | 0.68 ± 0.031 | 0.2547 ± 0.0024
